Legend:
Assay in all cases: Off-chip Mobility Shift Assay (MSA) kinase inhibition
Format in all cases: biochemical
KIT(V560G) = biological target: T1, KIT(V560G) (Homo sapiens, UniProt P10721, V560G); settings: for inhibition at 0.1 µM: inhibitor concentration 0.1 μM
T1 construct: purchased Carna Biosciences
Method: (§1) Off-chip Mobility Shift Assay (MSA) by Cama Biosciences, Inc (Natick, Mass.) a used for measuring the kinase activity and inhibition. • 1) The 5 μL of x4 compound solution, 5 μL of x4 Substrate/ATP/Metal solution, and 10 μL of x2 kinase solution were prepared with assay buffer (20 mM HEPES, 0.01% Triton X100, 2 mM DTT, pH 7.5) and mixed and incubated in a well of polypropylene 384 well microplate for 1 or 5 hour(s)* at room temperature.

RAF1 = biological target: T2, RAF1 (Homo sapiens, UniProt P04049); settings: for inhibition at 0.1 µM: inhibitor concentration 0.1 μM
T2 construct: purchased Carna Biosciences
Method: as §1

SRC = biological target: T3, SRC (Homo sapiens, UniProt P12931); settings: for inhibition at 0.1 µM: inhibitor concentration 0.1 μM
T3 construct: purchased Carna Biosciences
Method: as §1

BRK = biological target: T4, BRK (Homo sapiens, UniProt Q13882); settings: for inhibition at 0.1 µM: inhibitor concentration 0.1 μM
T4 construct: purchased Carna Biosciences
Method: as §1

LCK = biological target: T5, LCK (Homo sapiens, UniProt P06239); settings: for inhibition at 0.1 µM: inhibitor concentration 0.1 μM
T5 construct: purchased Carna Biosciences
T5 sequence (P06239 whole entry): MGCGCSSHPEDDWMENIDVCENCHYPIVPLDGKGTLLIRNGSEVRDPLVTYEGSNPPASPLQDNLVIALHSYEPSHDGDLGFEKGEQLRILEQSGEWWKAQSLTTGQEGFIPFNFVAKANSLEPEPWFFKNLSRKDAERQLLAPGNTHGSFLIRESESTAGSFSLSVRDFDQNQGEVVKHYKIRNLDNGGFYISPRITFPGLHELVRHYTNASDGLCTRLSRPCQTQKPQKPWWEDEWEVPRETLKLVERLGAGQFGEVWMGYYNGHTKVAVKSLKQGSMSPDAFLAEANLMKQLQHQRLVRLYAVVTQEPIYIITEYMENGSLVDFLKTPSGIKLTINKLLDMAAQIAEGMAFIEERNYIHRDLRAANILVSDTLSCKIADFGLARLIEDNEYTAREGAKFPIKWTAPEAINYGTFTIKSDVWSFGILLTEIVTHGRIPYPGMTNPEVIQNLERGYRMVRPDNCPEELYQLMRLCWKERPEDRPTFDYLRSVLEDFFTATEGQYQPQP
Method: as §1

BRAF = biological target: T6, BRAF (Homo sapiens, UniProt P15056)
T6 construct: purchased Carna Biosciences
Method: as §1

JAK2 = biological target: T7, JAK2 (Homo sapiens, UniProt O60674); settings: for inhibition at 0.1 µM: inhibitor concentration 0.1 μM
T7 construct: purchased Carna Biosciences
Method: as §1

KIT(T670I) = biological target: T8, KIT(T670I) (Homo sapiens, UniProt P10721, T670I); settings: for inhibition at 0.1 µM: inhibitor concentration 0.1 μM
T8 construct: purchased Carna Biosciences
Method: as §1

PIM1 = biological target: T9, PIM1 (Homo sapiens, UniProt P11309); settings: inhibitor concentration 0.1 μM
T9 construct: purchased Carna Biosciences
T9 sequence (P11309 whole entry): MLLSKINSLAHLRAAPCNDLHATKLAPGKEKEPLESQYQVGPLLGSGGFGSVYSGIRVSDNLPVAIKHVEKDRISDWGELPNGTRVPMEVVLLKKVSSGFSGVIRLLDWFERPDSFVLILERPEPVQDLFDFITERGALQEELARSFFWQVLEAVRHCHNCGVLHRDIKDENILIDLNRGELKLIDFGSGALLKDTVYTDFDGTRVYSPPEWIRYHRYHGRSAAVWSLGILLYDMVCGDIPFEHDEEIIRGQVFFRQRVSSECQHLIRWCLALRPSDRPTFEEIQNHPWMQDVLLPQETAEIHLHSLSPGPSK
Method: as §1

FGFR2 = biological target: T10, FGFR2 (Homo sapiens, UniProt P21802); settings: for inhibition at 0.1 µM: inhibitor concentration 0.1 μM
T10 construct: purchased Carna Biosciences
Method: as §1

AurA = biological target: T11, AurA (Homo sapiens, UniProt O14965); settings: for inhibition at 0.1 µM: inhibitor concentration 0.1 μM
T11 construct: purchased Carna Biosciences
T11 sequence (O14965 1-403): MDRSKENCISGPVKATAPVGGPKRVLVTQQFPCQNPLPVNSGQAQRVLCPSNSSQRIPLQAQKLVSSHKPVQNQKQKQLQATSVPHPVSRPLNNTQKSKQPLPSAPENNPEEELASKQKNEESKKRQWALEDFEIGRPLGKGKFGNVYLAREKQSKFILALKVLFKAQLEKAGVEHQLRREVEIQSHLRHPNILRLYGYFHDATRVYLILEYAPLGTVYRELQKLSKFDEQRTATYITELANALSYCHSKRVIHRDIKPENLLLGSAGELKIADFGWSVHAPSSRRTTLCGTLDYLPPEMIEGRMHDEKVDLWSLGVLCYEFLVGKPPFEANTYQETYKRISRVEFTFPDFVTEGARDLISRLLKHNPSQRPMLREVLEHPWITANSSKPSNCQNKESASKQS
Method: as §1

MLK1 = biological target: T12, MLK1 (Homo sapiens, UniProt P80192); settings: inhibitor concentration 0.1 μM
T12 construct: purchased Carna Biosciences
Method: as §1

RON = biological target: T13, RON (Homo sapiens, UniProt Q04912); settings: inhibitor concentration 0.1 μM
T13 construct: purchased Carna Biosciences
Method: as §1

JNK3 = biological target: T14, JNK3 (Homo sapiens, UniProt P53779); settings: inhibitor concentration 0.1 μM
T14 construct: purchased Carna Biosciences, Inc
Method: as §1

PIM2 = biological target: T15, PIM2 (Homo sapiens, UniProt Q9P1W9); settings: inhibitor concentration 0.1 μM
T15 construct: purchased Carna Biosciences
T15 sequence (Q9P1W9 whole entry): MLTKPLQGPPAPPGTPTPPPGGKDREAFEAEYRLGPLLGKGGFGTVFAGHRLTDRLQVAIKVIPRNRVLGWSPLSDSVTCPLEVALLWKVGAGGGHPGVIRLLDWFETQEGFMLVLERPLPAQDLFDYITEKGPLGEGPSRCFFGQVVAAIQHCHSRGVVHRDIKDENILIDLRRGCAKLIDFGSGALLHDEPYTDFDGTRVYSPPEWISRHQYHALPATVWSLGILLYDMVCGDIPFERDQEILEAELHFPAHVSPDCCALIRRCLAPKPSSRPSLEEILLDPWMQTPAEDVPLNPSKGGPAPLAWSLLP
Method: as §1

ABL(T315I) = biological target: T16, ABL(T315I) (Homo sapiens, UniProt P00519, T315I); settings: inhibitor concentration 0.1 μM
T16 construct: purchased Carna Biosciences
Method: as §1

MAP3K4 = biological target: T17, MAP3K4 (Homo sapiens, UniProt Q9Y6R4); settings: inhibitor concentration 0.1 μM
T17 construct: purchased Carna Biosciences
T17 sequence (Q9Y6R4 whole entry): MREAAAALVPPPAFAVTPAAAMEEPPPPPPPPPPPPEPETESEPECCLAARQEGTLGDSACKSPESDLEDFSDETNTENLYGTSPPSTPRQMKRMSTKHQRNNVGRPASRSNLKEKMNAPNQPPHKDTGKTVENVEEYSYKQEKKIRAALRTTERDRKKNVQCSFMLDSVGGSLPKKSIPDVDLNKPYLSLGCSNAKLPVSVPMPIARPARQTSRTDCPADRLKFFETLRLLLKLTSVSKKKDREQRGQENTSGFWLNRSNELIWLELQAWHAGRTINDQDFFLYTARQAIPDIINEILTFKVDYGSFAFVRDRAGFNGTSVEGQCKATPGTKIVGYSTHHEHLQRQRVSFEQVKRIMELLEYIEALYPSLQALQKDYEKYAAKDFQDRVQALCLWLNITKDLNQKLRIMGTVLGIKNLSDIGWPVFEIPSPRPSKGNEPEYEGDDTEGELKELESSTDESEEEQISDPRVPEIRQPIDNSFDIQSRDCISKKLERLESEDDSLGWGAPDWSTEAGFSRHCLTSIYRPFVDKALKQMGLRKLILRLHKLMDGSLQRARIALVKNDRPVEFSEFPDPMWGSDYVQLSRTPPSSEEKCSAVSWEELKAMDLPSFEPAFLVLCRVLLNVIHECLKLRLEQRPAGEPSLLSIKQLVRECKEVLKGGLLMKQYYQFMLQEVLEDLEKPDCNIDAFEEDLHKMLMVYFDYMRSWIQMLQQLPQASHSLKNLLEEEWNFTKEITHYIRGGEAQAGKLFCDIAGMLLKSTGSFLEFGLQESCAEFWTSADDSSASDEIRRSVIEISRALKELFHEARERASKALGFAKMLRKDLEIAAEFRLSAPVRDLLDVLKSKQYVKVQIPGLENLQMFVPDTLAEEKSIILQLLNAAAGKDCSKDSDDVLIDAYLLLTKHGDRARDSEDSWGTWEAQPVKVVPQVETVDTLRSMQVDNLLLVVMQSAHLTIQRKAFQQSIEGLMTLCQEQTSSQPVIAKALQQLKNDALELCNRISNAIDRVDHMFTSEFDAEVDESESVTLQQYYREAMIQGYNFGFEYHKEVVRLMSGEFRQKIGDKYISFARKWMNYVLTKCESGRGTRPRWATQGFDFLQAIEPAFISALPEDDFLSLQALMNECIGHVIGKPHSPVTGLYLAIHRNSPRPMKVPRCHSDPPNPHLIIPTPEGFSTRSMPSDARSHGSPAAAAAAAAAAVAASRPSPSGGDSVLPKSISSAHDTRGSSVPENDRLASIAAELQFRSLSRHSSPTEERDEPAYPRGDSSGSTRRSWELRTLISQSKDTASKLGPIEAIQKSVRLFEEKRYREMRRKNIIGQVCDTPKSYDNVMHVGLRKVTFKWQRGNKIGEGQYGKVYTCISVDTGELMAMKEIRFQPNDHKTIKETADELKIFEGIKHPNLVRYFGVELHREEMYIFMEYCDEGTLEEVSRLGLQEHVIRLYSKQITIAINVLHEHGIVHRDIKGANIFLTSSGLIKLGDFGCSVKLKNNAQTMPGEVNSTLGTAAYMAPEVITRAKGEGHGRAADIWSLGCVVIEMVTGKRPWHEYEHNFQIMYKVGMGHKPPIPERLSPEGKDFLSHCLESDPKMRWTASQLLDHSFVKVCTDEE
Method: as §1

MET = biological target: T18, MET (Homo sapiens, UniProt P08581); settings: for inhibition at 0.1 µM: inhibitor concentration 0.1 μM
T18 construct: purchased Carna Biosciences
T18 sequence (P08581 25-1390): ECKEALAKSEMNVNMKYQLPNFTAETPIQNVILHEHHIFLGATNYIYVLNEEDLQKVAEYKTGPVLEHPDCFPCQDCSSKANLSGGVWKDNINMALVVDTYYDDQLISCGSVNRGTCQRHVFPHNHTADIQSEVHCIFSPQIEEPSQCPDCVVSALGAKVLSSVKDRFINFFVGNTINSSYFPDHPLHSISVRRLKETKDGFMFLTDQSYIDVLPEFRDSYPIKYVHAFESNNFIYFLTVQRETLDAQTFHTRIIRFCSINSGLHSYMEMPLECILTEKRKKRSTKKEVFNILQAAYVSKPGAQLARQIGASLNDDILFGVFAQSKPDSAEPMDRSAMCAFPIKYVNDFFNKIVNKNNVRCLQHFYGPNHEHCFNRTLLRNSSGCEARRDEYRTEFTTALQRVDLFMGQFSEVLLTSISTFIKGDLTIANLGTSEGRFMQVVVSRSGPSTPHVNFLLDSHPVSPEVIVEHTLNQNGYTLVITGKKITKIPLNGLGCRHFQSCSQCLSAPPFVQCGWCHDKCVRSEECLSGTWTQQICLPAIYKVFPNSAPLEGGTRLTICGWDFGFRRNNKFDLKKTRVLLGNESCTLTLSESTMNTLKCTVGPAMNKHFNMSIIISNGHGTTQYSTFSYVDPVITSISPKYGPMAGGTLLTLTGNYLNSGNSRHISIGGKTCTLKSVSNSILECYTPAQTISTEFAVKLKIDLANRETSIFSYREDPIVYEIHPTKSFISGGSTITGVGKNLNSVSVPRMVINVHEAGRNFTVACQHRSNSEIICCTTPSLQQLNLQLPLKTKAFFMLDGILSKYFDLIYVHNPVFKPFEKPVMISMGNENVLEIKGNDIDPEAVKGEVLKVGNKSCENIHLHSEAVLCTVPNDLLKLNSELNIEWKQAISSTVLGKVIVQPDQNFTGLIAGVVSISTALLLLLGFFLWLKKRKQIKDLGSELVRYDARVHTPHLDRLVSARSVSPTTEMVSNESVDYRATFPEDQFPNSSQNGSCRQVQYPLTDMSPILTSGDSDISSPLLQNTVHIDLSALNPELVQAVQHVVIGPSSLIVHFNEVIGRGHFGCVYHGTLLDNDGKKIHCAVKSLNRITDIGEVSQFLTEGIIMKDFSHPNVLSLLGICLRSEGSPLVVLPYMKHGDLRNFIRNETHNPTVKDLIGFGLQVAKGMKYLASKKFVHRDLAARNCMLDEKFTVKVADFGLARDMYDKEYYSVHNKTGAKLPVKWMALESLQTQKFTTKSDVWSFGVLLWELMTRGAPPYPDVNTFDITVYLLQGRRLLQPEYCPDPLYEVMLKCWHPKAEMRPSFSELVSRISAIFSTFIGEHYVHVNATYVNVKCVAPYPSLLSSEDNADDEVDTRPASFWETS
Method: as §1

PIM3 = biological target: T19, PIM3 (Homo sapiens, UniProt Q86V86); settings: inhibitor concentration 0.1 μM
T19 construct: purchased Carna Biosciences
Method: as §1

PIK3CA/PIK3R1 = biological target: T20, PIK3CA/PIK3R1 (Homo sapiens, UniProt P42336); settings: for inhibition at 0.1 µM: inhibitor concentration 0.1 μM
T20 construct: purchased Carna Biosciences
Method: as §1

ABL(E255K) = biological target: T21, ABL(E255K) (Homo sapiens, UniProt P00519, E255K); settings: inhibitor concentration 0.1 μM
T21 construct: purchased Carna Biosciences
Method: as §1

MAPKAPK2 = biological target: T22, MAPKAPK2 (Homo sapiens, UniProt P49137); settings: inhibitor concentration 0.1 μM
T22 construct: purchased Carna Biosciences
Method: as §1

HER2 = biological target: T23, HER2 (Homo sapiens, UniProt P04626); settings: for inhibition at 0.1 µM: inhibitor concentration 0.1 μM
T23 construct: purchased Carna Biosciences
Method: as §1

JNK2 = biological target: T24, JNK2 (Homo sapiens, UniProt P45984); settings: inhibitor concentration 0.1 μM
T24 construct: purchased Carna Biosciences
T24 sequence (P45984 whole entry): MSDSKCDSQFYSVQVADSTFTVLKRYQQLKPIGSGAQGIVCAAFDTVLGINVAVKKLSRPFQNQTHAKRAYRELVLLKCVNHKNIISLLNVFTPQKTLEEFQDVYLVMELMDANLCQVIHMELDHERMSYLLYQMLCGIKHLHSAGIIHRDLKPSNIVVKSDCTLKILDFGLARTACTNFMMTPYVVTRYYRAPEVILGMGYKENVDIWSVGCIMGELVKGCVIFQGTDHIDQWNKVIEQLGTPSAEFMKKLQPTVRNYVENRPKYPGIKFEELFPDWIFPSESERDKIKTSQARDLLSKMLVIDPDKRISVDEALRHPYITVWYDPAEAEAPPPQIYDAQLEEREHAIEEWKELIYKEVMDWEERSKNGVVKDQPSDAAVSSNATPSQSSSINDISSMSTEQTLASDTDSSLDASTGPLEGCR
Method: as §1

Erk1 = biological target: T25, Erk1 (Homo sapiens, UniProt P27361); settings: for inhibition at 0.1 µM: inhibitor concentration 0.1 μM
T25 construct: purchased Carna Biosciences
Method: as §1

AKT1 = biological target: T26, AKT1 (Homo sapiens, UniProt P31749); settings: inhibitor concentration 0.1 μM
T26 construct: purchased Carna Biosciences
T26 sequence (P31749 whole entry): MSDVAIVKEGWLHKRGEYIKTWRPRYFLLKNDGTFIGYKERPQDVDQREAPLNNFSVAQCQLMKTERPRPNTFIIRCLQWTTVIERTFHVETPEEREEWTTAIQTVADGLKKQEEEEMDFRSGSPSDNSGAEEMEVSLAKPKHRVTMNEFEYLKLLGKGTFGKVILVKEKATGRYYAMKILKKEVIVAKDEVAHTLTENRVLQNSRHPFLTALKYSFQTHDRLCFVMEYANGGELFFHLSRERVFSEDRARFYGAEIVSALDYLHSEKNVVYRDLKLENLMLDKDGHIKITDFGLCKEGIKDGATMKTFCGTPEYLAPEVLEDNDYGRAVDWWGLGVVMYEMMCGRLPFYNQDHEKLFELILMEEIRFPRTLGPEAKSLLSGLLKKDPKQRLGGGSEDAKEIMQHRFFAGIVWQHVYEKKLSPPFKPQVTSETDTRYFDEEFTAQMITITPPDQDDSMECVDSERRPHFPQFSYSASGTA
Method: as §1

[1] = inhibitor concentration 0.01 μM, 0.01 µM
[2] = inhibitor concentration 0.01 μM

| inhibition at 0.1 µM (PIM1) [%] | inhibition at 0.1 µM (KIT(V560G)) [%] | inhibition at 0.1 µM (RAF1) [%] | inhibition at 0.1 µM (FGFR2) [%] | inhibition at 0.1 µM (SRC) [%] | inhibition at 0.1 µM (AurA) [%] | inhibition at 0.1 µM (MLK1) [%] | inhibition at 0.1 µM (BRK) [%] | inhibition at 0.1 µM (RON) [%] | inhibition at 0.1 µM (JNK3) [%] | inhibition at 0.1 µM (PIM2) [%] | inhibition at 0.1 µM (ABL(T315I)) [%] | inhibition at 0.1 µM (LCK) [%] | inhibition at 0.1 µM (MAP3K4) [%] | inhibition at 0.1 µM (MET) [%] | inhibition at 0.1 µM (PIM3) [%] | inhibition at 0.1 µM (PIK3CA/PIK3R1) [%] | inhibition at 0.1 µM (ABL(E255K)) [%] | inhibition at 0.1 µM (MAPKAPK2) [%] | inhibition at 0.1 µM (JAK2) [%] | Structure (SMILES) | further results |
| --- | --- | --- | --- | --- | --- | --- | --- | --- | --- | --- | --- | --- | --- | --- | --- | --- | --- | --- | --- | --- | --- |
|  |  |  |  |  |  |  |  |  |  |  |  |  |  |  |  |  |  |  |  | C/C=C/S(=O)(=O)Nc1ccc(F)c(C(=O)c2c[nH]c3ncc(-c4ccc(Cl)cc4)cc23)c1F [200-93b] | KIT(V560G) inhibition (KIT(V560G); [1]): <20%; RAF1 inhibition (RAF1; [1]): >20%; SRC inhibition (SRC; [1]): <20%; BRK inhibition (BRK; [1]): >20%; LCK inhibition (LCK; [1]): >20%; BRAF inhibition (BRAF; [1]): <20%; JAK2 inhibition (JAK2; [1]): <20%; KIT(T670I) inhibition (KIT(T670I); [1]): <20% |
| < 30 | < 30 | > 30 | < 30 | < 30 | < 30 | < 30 | > 30 | < 30 | < 30 | < 30 | < 30 | < 30 | < 30 | < 30 | < 30 | < 30 | < 30 | < 30 | < 30 | O=C(c1c(F)ccc(NS(=O)(=O)CC(O)CO)c1F)c1c[nH]c2ncc(-c3ccc(Cl)cc3)cc12 (stereo not drawn) [200-73, N-[3-[5-(4-chlorophenyl)-lH-pyrrolo [2,3-b]pyridine-3-carbonyl]-2,4-difluorophenyl]-2,3-dihydroxypropane-l-sulfonamide] | inhibition at 0.1 µM (BRAF; inhibitor concentration 0.1 μM): < 30%; inhibition at 0.1 µM (KIT(T670I)): < 30%; inhibition at 0.1 µM (HER2): < 30%; inhibition at 0.1 µM (JNK2): < 30%; inhibition at 0.1 µM (Erk1): < 30%; inhibition at 0.1 µM (AKT1): < 30% |
| < 30 | < 30 | > 30 | < 30 | < 30 | < 30 | < 30 | > 30 | < 30 | < 30 | < 30 | < 30 | > 30 | < 30 | < 30 | < 30 | < 30 | < 30 | < 30 | < 30 | CC(=O)CS(=O)(=O)Nc1ccc(F)c(C(=O)c2c[nH]c3ncc(-c4ccc(Cl)cc4)cc23)c1F [200-117] | inhibition at 0.1 µM (KIT(T670I)): < 30%; inhibition at 0.1 µM (HER2): < 30%; inhibition at 0.1 µM (JNK2): < 30%; inhibition at 0.1 µM (Erk1): < 30%; inhibition at 0.1 µM (AKT1): < 30% |
|  | > 50 |  |  | > 50 |  |  | > 50 |  |  |  |  | > 50 |  |  |  |  |  |  | > 50 | O=C(c1c(F)ccc(NS(=O)(=O)CCCO)c1F)c1c[nH]c2ncc(-c3ccc(Cl)cc3)cc12 [200-17, N-[3-[5-(4-chlorophenyl)-1H-pyrrolo[2,3-b]pyridine-3-carbonyl]-2,4-difluorophenyl]-3-hydroxypropane-1-sulfonamide] | inhibition at 0.01 µM (KIT(V560G); [2]): < 30%; inhibition at 1 µM (KIT(V560G); inhibitor concentration 1 μM): > 50%; inhibition at 1 µM (RAF1; inhibitor concentration 1 μM): > 50%; inhibition at 1 µM (FGFR2; inhibitor concentration 1 μM): > 50%; inhibition at 0.01 µM (SRC; [2]): < 30%; inhibition at 1 µM (SRC; inhibitor concentration 1 μM): > 50%; inhibition at 1 µM (AurA; inhibitor concentration 1 μM): > 50%; inhibition at 0.01 µM (BRK; [2]): > 30%; inhibition at 1 µM (BRK; inhibitor concentration 1 μM): > 50%; inhibition at 0.01 µM (LCK; [2]): > 30%; inhibition at 1 µM (LCK; inhibitor concentration 1 μM): > 50%; inhibition at 1 µM (MET; inhibitor concentration 1 μM): > 50%; inhibition at 1 µM (BRAF; inhibitor concentration 1 μM): < 50%; inhibition at 1 µM (PIK3CA/PIK3R1; inhibitor concentration 1 μM): > 50%; inhibition at 0.01 µM (JAK2; [2]): < 30%; inhibition at 1 µM (JAK2; inhibitor concentration 1 μM): > 50%; inhibition at 1 µM (KIT(T670I); inhibitor concentration 1 μM): < 50%; inhibition at 1 µM (HER2; inhibitor concentration 1 μM): < 50%; inhibition at 1 µM (Erk1; inhibitor concentration 1 μM): < 50% |

| Structure (SMILES) | inhibition at 0.1 µM (PIM1) [%] | inhibition at 0.1 µM (KIT(V560G)) [%] | inhibition at 0.1 µM (RAF1) [%] | inhibition at 0.1 µM (FGFR2) [%] | inhibition at 0.1 µM (SRC) [%] | inhibition at 0.1 µM (AurA) [%] | inhibition at 0.1 µM (MLK1) [%] | inhibition at 0.1 µM (BRK) [%] | inhibition at 0.1 µM (RON) [%] | inhibition at 0.1 µM (JNK3) [%] | inhibition at 0.1 µM (PIM2) [%] | inhibition at 0.1 µM (ABL(T315I)) [%] | inhibition at 0.1 µM (LCK) [%] | inhibition at 0.1 µM (MAP3K4) [%] | inhibition at 0.1 µM (MET) [%] | inhibition at 0.1 µM (PIM3) [%] | inhibition at 0.1 µM (PIK3CA/PIK3R1) [%] | inhibition at 0.1 µM (ABL(E255K)) [%] | inhibition at 0.1 µM (MAPKAPK2) [%] | inhibition at 0.1 µM (JAK2) [%] | further results |
| --- | --- | --- | --- | --- | --- | --- | --- | --- | --- | --- | --- | --- | --- | --- | --- | --- | --- | --- | --- | --- | --- |
| CC(O)CS(=O)(=O)Nc1ccc(F)c(C(=O)c2c[nH]c3ncc(-c4ccc(Cl)cc4)cc23)c1F (stereo not drawn) [200-115] | < 30 | < 30 | > 30 | < 30 | < 30 | < 30 | < 30 | > 30 | < 30 | < 30 | < 30 | < 30 | > 30 | < 30 | < 30 | < 30 | < 30 | < 30 | < 30 | < 30 | inhibition at 0.1 µM (KIT(T670I)): < 30%; inhibition at 0.1 µM (HER2): < 30%; inhibition at 0.1 µM (JNK2): < 30%; inhibition at 0.1 µM (Erk1): < 30%; inhibition at 0.1 µM (AKT1): < 30% |
